We go through twelve molecules from PubChem BioAssay (NCI).

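Interpolation was linear, between the two tested concentrations surrounding the appropriate level; five concentrations were tested over 48 hours in 96-well plates. GI50 is the concentration that inhibits growth by half. TGI marks complete inhibition of growth.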 Some results are limits rather than exact numbers.

Some test systems named below: M14 melanoma; OVCAR-8 ovarian; MOLT-4 leukemia; SW-620 colon; DU-145 prostate; HCC-2998 colon; NCI-H522 lung; T-47D breast.
What all share (experiment): inhibition of tumour cell growth, NCI panel, 48 h

In the case of `COc1ccc(/C=C\c2cc(OC)c(OC)c(OC)c2)cc1N/C=C\C(=O)c1c[nH]c2ccccc12`, the GI50 in the assay with M14 melanoma, in the assay with OVCAR-8 ovarian, with MOLT-4 leukemia, in the assay on SW-620 colon, in the assay on DU-145 prostate and with HCC-2998 colon was under 0.01 µM throughout. Moreover, the TGI is 47.8 µM in the assay with M14 melanoma; over 100 µM with OVCAR-8 ovarian; over 100 µM in the assay with MOLT-4 leukemia; over 100 µM with SW-620 colon; 0.0142 µM in the assay on DU-145 prostate; over 100 µM in the assay with HCC-2998 colon.
Take `Cc1cc(O)cc(-c2nn(C)cc2-c2cc(N3CCOCC3)nc(-c3cccnc3)n2)c1`: the GI50 with M14 melanoma was 3.55 µM; with OVCAR-8 ovarian, 7.11 µM; in the assay on NCI-H522 lung, 2.79 µM; in the assay on T-47D breast, 2.82 µM; in the assay with MOLT-4 leukemia, 3.65 µM; in the assay on SW-620 colon, 8.14 µM. The GI50 in the assay with DU-145 prostate was 3.97 µM; in the assay with HCC-2998 colon it was 13.9 µM. For the same molecule, the TGI was 15.8 µM in the assay with M14 melanoma; over 100 µM in the assay on OVCAR-8 ovarian; 18.1 µM in the assay on NCI-H522 lung; 39 µM in the assay on T-47D breast; over 100 µM in the assay on MOLT-4 leukemia; 48.1 µM in the assay on SW-620 colon. Also, the TGI was over 100 µM in the assay with DU-145 prostate and 49.5 µM with HCC-2998 colon.
As to `Cc1ccc(Nn2c(SCC(=O)Nc3nc(-c4ccccc4)cs3)nc(C)c2C)cc1`, the GI50 in the assay on M14 melanoma was 3.7 µM; in the assay on OVCAR-8 ovarian, 3.79 µM; with NCI-H522 lung, 2.97 µM; in the assay on T-47D breast, 1.85 µM; with MOLT-4 leukemia it was 3.46 µM; in the assay on SW-620 colon it was 8.3 µM. For the same molecule, in the assay with DU-145 prostate, the GI50 is 9.75 µM. The TGI in the assay on M14 melanoma was 48.6 µM; in the assay with OVCAR-8 ovarian it was over 100 µM; with NCI-H522 lung, 86.8 µM; with T-47D breast, 10.4 µM; in the assay with MOLT-4 leukemia, over 100 µM; in the assay on SW-620 colon, over 100 µM. Further, the TGI in the assay with DU-145 prostate was 64.6 µM.
On to `COc1ccccc1N1CCN(CC(O)Cn2c(=O)c3c(OC)nc(C)cc3c(=O)n2-c2ccccc2)CC1` (configuration not stated), for which the GI50 in the assay with M14 melanoma, in the assay with NCI-H522 lung, in the assay on T-47D breast, in the assay with MOLT-4 leukemia, with SW-620 colon and in the assay with DU-145 prostate was over 100 µM each time. Moreover, the GI50 in the assay with HCC-2998 colon is over 100 µM. In addition, the TGI in the assay on M14 melanoma, with NCI-H522 lung, in the assay with T-47D breast, in the assay with MOLT-4 leukemia, with SW-620 colon and with DU-145 prostate was over 100 µM each time. In addition, the TGI in the assay on HCC-2998 colon was over 100 µM.
Take `COC(=O)C1OC(SCCN)C(O)C(O)C1O` (configuration not stated): the TGI in the assay with M14 melanoma, in the assay on OVCAR-8 ovarian, with NCI-H522 lung, with T-47D breast, in the assay with MOLT-4 leukemia and with SW-620 colon was over 100 µM throughout. The molecule further came in with a TGI in the assay with DU-145 prostate of over 100 µM.
As to `COc1ccc(-c2cncn2-c2ccc(-c3nc4cc(OC)c(OC)c(OC)c4s3)cc2)cc1N`, the GI50 was 5.91 µM in the assay with M14 melanoma; 6.19 µM in the assay on OVCAR-8 ovarian; 3.37 µM in the assay on NCI-H522 lung; 3.02 µM in the assay on T-47D breast; 4 µM in the assay with MOLT-4 leukemia; 6.21 µM in the assay on SW-620 colon. The GI50 in the assay with DU-145 prostate is 6.38 µM. Also, the TGI in the assay with M14 melanoma is over 100 µM; with OVCAR-8 ovarian it was over 100 µM; with NCI-H522 lung it was 17.5 µM; in the assay on T-47D breast, over 100 µM; with MOLT-4 leukemia, over 100 µM; with SW-620 colon, over 100 µM. The TGI in the assay on DU-145 prostate is over 100 µM.
As for `Nc1ccccc1-n1c2c(c3ccccc3c1=O)C(=O)c1ccccc1-2`, the TGI was over 100 µM with M14 melanoma; 45.4 µM in the assay on OVCAR-8 ovarian; 25.6 µM with NCI-H522 lung; over 100 µM with MOLT-4 leukemia; over 100 µM with SW-620 colon; over 100 µM in the assay on DU-145 prostate. In addition, the TGI in the assay with HCC-2998 colon was over 100 µM.
Take `O=C(/C=C/c1cc(O)ccc1O)c1ccc(Cl)cc1`: the GI50 in the assay on M14 melanoma was 19.8 µM; in the assay on OVCAR-8 ovarian, 57.2 µM; with NCI-H522 lung it was 61.8 µM; in the assay on T-47D breast it was 36.5 µM; with MOLT-4 leukemia, over 100 µM; with SW-620 colon, 61.9 µM. Moreover, the TGI with M14 melanoma is 47.1 µM; with OVCAR-8 ovarian it was over 100 µM; with NCI-H522 lung, over 100 µM; in the assay on T-47D breast, over 100 µM; in the assay with MOLT-4 leukemia it was over 100 µM; in the assay with SW-620 colon, over 100 µM.
Take `C=CC(=O)N1CCC(CNc2ncnc(N)c2-c2ccc(Oc3ccccc3)cc2)CC1`: the GI50 was 31.6 µM in the assay on M14 melanoma; 27.5 µM in the assay with OVCAR-8 ovarian; 10.4 µM in the assay on NCI-H522 lung; 18.6 µM with MOLT-4 leukemia; 33.5 µM in the assay with SW-620 colon; 32.9 µM in the assay with DU-145 prostate. Further, the GI50 in the assay with HCC-2998 colon is 21 µM. Moreover, the TGI in the assay with M14 melanoma is over 100 µM; in the assay with OVCAR-8 ovarian, over 100 µM; in the assay with NCI-H522 lung it was 32.5 µM; in the assay with MOLT-4 leukemia, 66 µM; in the assay on SW-620 colon, over 100 µM; in the assay with DU-145 prostate it was over 100 µM. Further, the TGI with HCC-2998 colon turned out to be 46.7 µM.
With `CCSc1nnc(-c2ccc3ccccc3c2O)n1-c1ccccc1`, the GI50 was 4.27 µM with NCI-H522 lung, over 100 µM in the assay on MOLT-4 leukemia, over 100 µM in the assay with DU-145 prostate and over 100 µM in the assay with HCC-2998 colon. For the same molecule, the TGI in the assay on NCI-H522 lung, with MOLT-4 leukemia, with DU-145 prostate and in the assay on HCC-2998 colon was over 100 µM in each case.
Regarding `CCOc1cc(CCNC)c2c(ccc3ccc(OC)c(O)c32)c1OC`, the TGI came out at 28.5 µM with M14 melanoma; 29.4 µM in the assay on OVCAR-8 ovarian; 21.7 µM with NCI-H522 lung; 51.1 µM in the assay with T-47D breast; 26.4 µM with MOLT-4 leukemia; 28.5 µM in the assay with DU-145 prostate. Besides, in the assay with HCC-2998 colon, the TGI was 30 µM.
On to `C#CCn1c2c(c3ccccc3c1=O)C(=O)c1ccccc1-2`, for which the TGI in the assay with M14 melanoma was over 100 µM; with OVCAR-8 ovarian it was 82.3 µM; in the assay on NCI-H522 lung, 42.2 µM; in the assay on T-47D breast it was 69.4 µM; in the assay on MOLT-4 leukemia, over 100 µM; in the assay with SW-620 colon, over 100 µM. In the assay on DU-145 prostate, the TGI came out at 44.4 µM.
